# Data as given in PubChem BioAssay AID2060494 (Molecular Pharmacology Branch, DTP, NCI, 2025).
# System: 435261-313-R-J1-PDC complex spheroid viability
# Test: Anticancer human tumor 435261-313-R-J1-PDC patient-derived colon adenocarcinoma cell line growth inhibition [GQUAD]
# Settings: for IC50: curve of first compound; for viability, T/C: stronger effect = lower value
# Text: DNA G-quadruplex Stabilizer Agents in Combinations in Complex Spheroids
# A high-throughput screen of multi-cell type tumor spheroids was designed to identify active combinations of DNA G-quadruplex stabilizer agents and targeted small molecules. Complex spheroids include a stromal component modeled by human endothelial cells (HUVEC) and fibroblasts modeled by human mesenchymal stem cells (MSCs). The concentration ranges selected for each drug and investigational agent were based upon clinically achievable concentrations if the clinical Cmax of the agent was known.
# Compounds. The drugs and investigational agents: pidnarulex (CX-5461; NSC782164), APTO-253 (NSC789042), BRACO-19 (NSC847499), peposertib (NSC802822), ceralasertib (NSC780249), elimusertib (NSC800525), camonsertib (NSC841442), AZD-1390 (NSC803789), olaparib (NSC753686), talazoparib (NSC767125), ART-558 (NSC835418), sotorasib (NSC818433), MRTX-1133 (NSC836407), SN-38 (NSC673596), topotecan (NSC609699), etoposide (NSC141540), doxorubicin (NSC123127), gemcitabine (NSC613327), 5-fluorouracil (NSC19893), paclitaxel (NSC125973), vemurafenib (NSC761431), panobinostat (NSC761190), R-306465 (JNJ-16241199; NSC773264), adavosertib (NSC754352), TP-3654 (NSC805149), carboplatin (NSC241240), KSQ-4279 (NSC840948), and staurosporine (NSC755774) were obtained from the National Cancer Institute (NCI) Developmental Therapeutics Program Chemical Repository (34). The FDA-approved anticancer drug set is available from the NCI Developmental Therapeutics Program. […] The stock solutions were prepared in dimethyl sulfoxide (DMSO, Sigma-Aldrich, St. Louis, MO, cat. D2650) at 800-fold the tested concentration and stored at -70 degrees C prior to their use. All drugs and investigational agents were tested over a range starting from a high concentration at or near the clinical Cmax and decreasing in half-log increments. If the clinical Cmax for an agent had not been determined, the highest concentration tested was 10 microM.
# 2.3 Cell Culture. All cells were maintained in an incubator at 37 degrees C and 5% CO2 with 95% humidity. The PDC lines were cultured according to standard operating procedures established by the NCI PDMR. All PDCs were thawed and cultured in Matrigel-coated flasks prepared with a working solution of 1X Ham's F-12 nutrient mix, without supplementation (Invitrogen, cat. 11765054), 100 U/mL penicillin-streptomycin (Invitrogen, cat. 15140122), and 2.5% Matrigel (Corning Inc., cat. 354248) for the first three passages. The 857933-349-R-J2-PDC line was cultured in 6C/Colon 1B media, which includes advanced DMEM/F-12 (Thermo Fisher Scientific, cat. 12634028), 10 mM HEPES (Thermo Fisher Scientific, cat. 15630080), 1X GlutaMAX supplement (Thermo Fisher Scientific, cat. 35050061), 0.1 mg/mL primocin (InvivoGen, cat. ant-pm-2), 10% defined fetal bovine serum, heat inactivated (HyClone Laboratories Inc., cat. SH30070.03HI), 50% L-WRN conditioned media (ATCC, cat. CRL-3276), 1.25 mM N-Acetyl-L-cysteine (Sigma-Aldrich, cat. A9165), 10 mM nicotinamide (Sigma-Aldrich, cat. N0636), 1X B-27 supplement (Thermo Fisher Scientific, cat. 17504044), 1X N-2 supplement (Thermo Fisher Scientific, cat. 17502048), 10 microM Y-27632 dihydrochloride (Tocris Bioscience, cat. 1254), and 50 ng/mL human EGF recombinant protein (Thermo Fisher Scientific, cat. PHG0311). The 485176-168-R4-J1-PDC line was cultured in Panc media, which includes all 6C/Colon 1B media components plus 100 ng/mL human FGF-10 (Thermo Fisher Scientific, cat. 100-26), 500 nM SB-431542 (Selleckchem, cat. S1067), and gastrin (Tocris, cat. 3006).
# […]
# [1] = second compound 0.0316 µM, first compound 0.0316 µM
# [2] = second compound 0.0316 µM, first compound 0.316 µM
# [3] = second compound 0.1 µM, first compound 0.0316 µM
# [4] = second compound 0.1 µM, first compound 0.316 µM
# [5] = second compound 0.316 µM, first compound 0.0316 µM
# [6] = second compound 0.316 µM, first compound 0.316 µM
# [7] = second compound 1 µM, first compound 0.0316 µM
# [8] = second compound 1 µM, first compound 0.316 µM
# [9] = second compound 3.16 µM, first compound 0.0316 µM
# [10] = second compound 3.16 µM, first compound 0.316 µM
# [11] = second compound 10 µM, first compound 0.0316 µM
# [12] = second compound 10 µM, first compound 0.316 µM
# 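Further: spheroids exposed to the agents for seven days before readout.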
# 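Wherever viability, T/C is given: percent of vehicle control viability with DMSO wells as 100%.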
smiles,measurement,setting,value
C#Cc1c(F)ccc2cc(O)cc(-c3ncc4c(N5CC6CCC(C5)N6)nc(OCC56CCCN5CC(F)C6)nc4c3F)c12 (centres undefined) + Cc1[nH]c2ccc(F)cc2c1-c1nc2c3cccnc3c3ncccc3c2[nH]1,IC50,second compound 0.0316 µM,> 10000 nM
same,IC50,second compound 0.1 µM,> 10000 nM
same,IC50,second compound 0.316 µM,> 10000 nM
same,IC50,second compound 1 µM,> 10000 nM
same,IC50,second compound 3.16 µM,< 31.6 nM
same,IC50,second compound 10 µM,< 31.6 nM
same,"viability, T/C",[1],94.8%
same,"viability, T/C","second compound 0.0316 µM, first compound 0.1 µM",106%
same,"viability, T/C",[2],88.9%
same,"viability, T/C","second compound 0.0316 µM, first compound 1 µM",104%
same,"viability, T/C","second compound 0.0316 µM, first compound 3.16 µM",65.6%
same,"viability, T/C","second compound 0.0316 µM, first compound 10 µM",58.9%
same,"viability, T/C",[3],107%
same,"viability, T/C","second compound 0.1 µM, first compound 0.1 µM",85.4%
same,"viability, T/C",[4],104%
same,"viability, T/C","second compound 0.1 µM, first compound 1 µM",62%
same,"viability, T/C","second compound 0.1 µM, first compound 3.16 µM",61.1%
same,"viability, T/C","second compound 0.1 µM, first compound 10 µM",57%
same,"viability, T/C",[5],64.5%
same,"viability, T/C","second compound 0.316 µM, first compound 0.1 µM",111%
same,"viability, T/C",[6],75.8%
same,"viability, T/C","second compound 0.316 µM, first compound 1 µM",75.4%
same,"viability, T/C","second compound 0.316 µM, first compound 3.16 µM",84.7%
same,"viability, T/C","second compound 0.316 µM, first compound 10 µM",74.4%
same,"viability, T/C",[7],61.8%
same,"viability, T/C","second compound 1 µM, first compound 0.1 µM",55.1%
same,"viability, T/C",[8],85.6%
same,"viability, T/C","second compound 1 µM, first compound 1 µM",66.9%
same,"viability, T/C","second compound 1 µM, first compound 3.16 µM",63.5%
same,"viability, T/C","second compound 1 µM, first compound 10 µM",46.3%
same,"viability, T/C",[9],51.2%
same,"viability, T/C","second compound 3.16 µM, first compound 0.1 µM",42.9%
same,"viability, T/C",[10],39.6%
same,"viability, T/C","second compound 3.16 µM, first compound 1 µM",28.4%
same,"viability, T/C","second compound 3.16 µM, first compound 3.16 µM",45%
same,"viability, T/C","second compound 3.16 µM, first compound 10 µM",0.2%
same,"viability, T/C",[11],24.2%
same,"viability, T/C","second compound 10 µM, first compound 0.1 µM",28.3%
same,"viability, T/C",[12],28.4%
same,"viability, T/C","second compound 10 µM, first compound 1 µM",37.1%
same,"viability, T/C","second compound 10 µM, first compound 3.16 µM",29%
same,"viability, T/C","second compound 10 µM, first compound 10 µM",0.26%
Cc1[nH]c2ccccc2c1CCNCc1ccc(/C=C/C(=O)NO)cc1 + Cc1[nH]c2ccc(F)cc2c1-c1nc2c3cccnc3c3ncccc3c2[nH]1,IC50,second compound 0.0316 µM,97.9 nM
same,IC50,second compound 0.1 µM,105 nM
same,IC50,second compound 0.316 µM,77.9 nM
same,IC50,second compound 1 µM,106 nM
same,IC50,second compound 3.16 µM,< 0.999 nM
same,IC50,second compound 10 µM,< 0.999 nM
same,"viability, T/C","second compound 0.0316 µM, first compound 0.000999 µM",86%
same,"viability, T/C","second compound 0.0316 µM, first compound 0.00316 µM",70.3%
same,"viability, T/C","second compound 0.0316 µM, first compound 0.00999 µM",77.2%
same,"viability, T/C",[1],98.1%
same,"viability, T/C","second compound 0.0316 µM, first compound 0.0999 µM",49.4%
same,"viability, T/C",[2],4.41%
same,"viability, T/C","second compound 0.1 µM, first compound 0.000999 µM",91.7%
same,"viability, T/C","second compound 0.1 µM, first compound 0.00316 µM",65.4%
same,"viability, T/C","second compound 0.1 µM, first compound 0.00999 µM",96.8%
same,"viability, T/C",[3],66.1%
same,"viability, T/C","second compound 0.1 µM, first compound 0.0999 µM",53.1%
same,"viability, T/C",[4],11.9%
same,"viability, T/C","second compound 0.316 µM, first compound 0.000999 µM",64.1%
same,"viability, T/C","second compound 0.316 µM, first compound 0.00316 µM",81.8%
same,"viability, T/C","second compound 0.316 µM, first compound 0.00999 µM",61.8%
same,"viability, T/C",[5],68.1%
same,"viability, T/C","second compound 0.316 µM, first compound 0.0999 µM",45.2%
same,"viability, T/C",[6],9.8%
same,"viability, T/C","second compound 1 µM, first compound 0.000999 µM",46.7%
same,"viability, T/C","second compound 1 µM, first compound 0.00316 µM",71.7%
same,"viability, T/C","second compound 1 µM, first compound 0.00999 µM",49.9%
same,"viability, T/C",[7],58.6%
same,"viability, T/C","second compound 1 µM, first compound 0.0999 µM",52.1%
same,"viability, T/C",[8],7.21%
same,"viability, T/C","second compound 3.16 µM, first compound 0.000999 µM",41.2%
same,"viability, T/C","second compound 3.16 µM, first compound 0.00316 µM",39.5%
same,"viability, T/C","second compound 3.16 µM, first compound 0.00999 µM",24.2%
same,"viability, T/C",[9],33.8%
same,"viability, T/C","second compound 3.16 µM, first compound 0.0999 µM",26%
same,"viability, T/C",[10],0.48%
same,"viability, T/C","second compound 10 µM, first compound 0.000999 µM",29.5%
same,"viability, T/C","second compound 10 µM, first compound 0.00316 µM",28.2%
same,"viability, T/C","second compound 10 µM, first compound 0.00999 µM",28.1%
same,"viability, T/C",[11],33.3%
same,"viability, T/C","second compound 10 µM, first compound 0.0999 µM",27.8%
same,"viability, T/C",[12],0.79%
